Assay results from patent EP4603105A1, “PHARMACEUTICAL COMPOSITION CONTAINING CYCLIC COMPOUND HAVING SELECTIVE KRAS INHIBITORY EFFECT AGAINST HRAS AND NRAS” (CHUGAI SEIYAKU KABUSHIKI KAISHA, priority 2022, dated 2024).

What was measured:
[1] = target: GDP-bound KRAS wild-type protein (Homo sapiens, UniProt P01116); experiment: Binding to KRAS by surface plasmon resonance (SPR), dissociation constant KD; settings: Single Cycle Kinetics
Outline: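 Biotinylated GDP-bound RAS was captured at about 100–300 RU. Running buffer: HBS pH 7.4, 10 mM MgCl2, 10 µM GDP, 1 mM DTT, 0.01% Tween 20, 4% DMSO.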

[2] = target: GDP-bound NRAS wild-type protein (Homo sapiens, UniProt P01111); experiment: Binding to NRAS by surface plasmon resonance (SPR), KD and KD ratio to KRAS; settings: ratio of KD for GDP-bound NRAS wild-type protein to KD for KRAS
Outline: (§1)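 Captured GDP-RAS (~100–300 RU) was exposed to increasing compound concentrations, 75 s per step, in running buffer with 10 µM GDP, 10 mM MgCl2 and 4% DMSO at pH 7.4.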

HRAS wild-type protein = HRAS wild-type protein (Homo sapiens, UniProt P01112); experiment: Binding to HRAS by surface plasmon resonance (SPR), KD and KD ratio to KRAS; settings: ratio of KD for HRAS wild-type protein to KD for KRAS
Outline: as §1

[3] = tested on: human lung cancer strain NCI-H441; type: cell-based
Outline: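 Step one: dispense the test compound in serial DMSO dilutions. Step three: add the reagent and measure […].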

Chain of GDP-bound KRAS wild-type protein (P01116 1-188 isoform P01116-2): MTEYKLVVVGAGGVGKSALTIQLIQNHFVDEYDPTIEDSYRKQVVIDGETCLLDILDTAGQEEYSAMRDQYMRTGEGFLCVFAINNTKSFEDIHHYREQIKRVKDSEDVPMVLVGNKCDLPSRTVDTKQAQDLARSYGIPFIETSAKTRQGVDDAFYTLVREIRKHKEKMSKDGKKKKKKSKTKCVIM
Chain of HRAS wild-type protein (P01112 whole entry): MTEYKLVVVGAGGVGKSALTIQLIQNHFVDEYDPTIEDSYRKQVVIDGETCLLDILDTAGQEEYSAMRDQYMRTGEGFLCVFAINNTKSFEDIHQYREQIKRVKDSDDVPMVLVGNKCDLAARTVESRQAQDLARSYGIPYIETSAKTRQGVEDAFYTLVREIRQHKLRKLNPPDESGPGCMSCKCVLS
Chain of GDP-bound NRAS wild-type protein (P01111 whole entry): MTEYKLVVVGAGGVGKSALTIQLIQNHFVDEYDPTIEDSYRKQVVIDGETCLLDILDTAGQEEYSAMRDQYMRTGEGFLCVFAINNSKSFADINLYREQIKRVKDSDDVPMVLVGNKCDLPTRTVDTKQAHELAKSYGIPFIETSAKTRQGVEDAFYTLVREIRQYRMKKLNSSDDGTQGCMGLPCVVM

Structure (SMILES) | Kd [1] | NRAS /KRAS [2] | HRAS /KRAS (HRAS wild-type protein) | IC50 [3]
CC[C@H](C)[C@@H]1NC(=O)[C@H](CC(C)C)N(C)C(=O)C[C@@H](C(=O)N2CCOCC2)N(C)C(=O)[C@H](C2CCCC2)N(C)C(=O)C2(CCC2)NC(=O)[C@@H]2C[C@@H](OCC3CC3)CN2C(=O)[C@H](CCc2cc(F)c(C(F)(F)F)c(F)c2)NC(=O)CN(C)C(=O)[C@H](Cc2ccc(C(F)(F)F)cc2)N2CCCC[C@@H](C2=O)N(C)C(=O)CN(C)C1=O [PP1000] | 0.039 nM | B (a compound having 3 or more and less than 10 is denoted as B) | B (a compound having 3 or more and less than 10 is denoted as B) | 7.5 nM
CCCCO[C@H]1CCN2C(=O)[C@H](CCc3cc(F)c(C(F)(F)F)c(F)c3)NC(=O)CN(C)C(=O)[C@H](Cc3ccc(C(F)(F)F)cc3)N3CCCCC[C@@H](C3=O)N(C)C(=O)CN(C)C(=O)[C@H]([C@@H](C)CC)NC(=O)[C@H](CC(C)C)N(C)C(=O)C[C@@H](C(=O)N3CCOCC3)N(C)C(=O)[C@H](C3CCCC3)N(C)C(=O)C3(CCC3)NC(=O)[C@H]12 [PP1009] | 2 nM | B (a compound having 3 or more and less than 10 is denoted as B) | B (a compound having 3 or more and less than 10 is denoted as B) | 195 nM
CC[C@H](C)[C@@H]1NC(=O)[C@H](CC(C)C)N(C)C(=O)C[C@@H](C(=O)N2CCOCC2)N(C)C(=O)[C@H](C2CCCC2)N(C)C(=O)C2(CCC2)NC(=O)[C@@H]2[C@@H](OCC3CCCC3)CCN2C(=O)[C@H](CCc2cc(F)c(C(F)(F)F)c(F)c2)NC(=O)CN(C)C(=O)[C@H](Cc2ccc(C(F)(F)F)cc2)N2CCCCC[C@@H](C2=O)N(C)C(=O)CN(C)C1=O [PP1011] | 3.7 nM | A (a compound having 10 or more and less than 20 is denoted as A) | B (a compound having 3 or more and less than 10 is denoted as B) | 314 nM
CC[C@H](C)[C@@H]1NC(=O)[C@H](CC(C)C)N(C)C(=O)C[C@@H](C(=O)N2CCOCC2)N(C)C(=O)[C@H](C2CCCC2)N(C)C(=O)C2(CCC2)NC(=O)[C@@H]2C[C@@H](OCC3CC3)CN2C(=O)[C@H](CCc2cc(F)c(C(F)(F)F)c(F)c2)NC(=O)CN(C)C(=O)[C@H](Cc2ccc(C(F)(F)F)cc2)N2CCCC[C@@H](C2=O)N(C)C(=O)CN(C)C1=O [PP1014] | 1.1 nM | C (A compound having a KD ratio of 0.1 or more and less than 3 is denoted as C) | C (A compound having a KD ratio of 0.1 or more and less than 3 is denoted as C) | 114 nM
CCO[C@@H]1C[C@H]2C(=O)NC3(CCC3)C(=O)N(C)[C@@H](C3CCCC3)C(=O)N(C)[C@H](C(=O)N(C)C)CC(=O)N(C)[C@@H](CC(C)C)C(=O)N[C@@H]([C@@H](C)CC)C(=O)N(C)CC(=O)N(C)[C@H]3C[C@@H](C)CCN(C3=O)[C@@H](Cc3ccc(C(F)(F)F)cc3)C(=O)N(C)CC(=O)N[C@@H](CCc3cc(F)c(C(F)(F)F)c(F)c3)C(=O)N2C1 [PP1018] | 0.017 nM | C (A compound having a KD ratio of 0.1 or more and less than 3 is denoted as C) | B (a compound having 3 or more and less than 10 is denoted as B) | 6.8 nM
CCO[C@@H]1C[C@H]2C(=O)NC3(CCC3)C(=O)N(C)[C@@H](C3CCCC3)C(=O)N(C)[C@H](C(=O)N(C)C)CC(=O)N(C)[C@@H](CC(C)C)C(=O)N[C@@H]([C@@H](C)CC)C(=O)N(C)CC(=O)N(C)[C@H]3CC(C)=CCN(C3=O)[C@@H](Cc3ccc(C(F)(F)F)cc3)C(=O)N(C)CC(=O)N[C@@H](CCc3cc(F)c(C(F)(F)F)c(F)c3)C(=O)N2C1 [PP1032] | 0.38 nM | C (A compound having a KD ratio of 0.1 or more and less than 3 is denoted as C) | C (A compound having a KD ratio of 0.1 or more and less than 3 is denoted as C) | 43.9 nM
CCO[C@@H]1C[C@H]2C(=O)NC3(CCC3)C(=O)N(C)[C@@H](C3CCCC3)C(=O)N(C)[C@H](C(=O)N(C)C)CC(=O)N(CC)[C@@H](CC(C)C)C(=O)N[C@@H]([C@@H](C)CC)C(=O)N(C)CC(=O)N(C)[C@H]3CC(C)=CCN(C3=O)[C@@H](Cc3ccc(C(F)(F)F)cc3)C(=O)N(C)CC(=O)N[C@@H](CCc3cc(F)c(C(F)(F)F)c(F)c3)C(=O)N2C1 [PP1037] | 0.76 nM | C (A compound having a KD ratio of 0.1 or more and less than 3 is denoted as C) | C (A compound having a KD ratio of 0.1 or more and less than 3 is denoted as C) | 296 nM
CCO[C@@H]1C[C@H]2C(=O)NC3(CCC3)C(=O)N(C)[C@@H](C3CCCC3)C(=O)N(C)[C@H](C(=O)N(C)C)CC(=O)N(C)[C@@H](CC)C(=O)N[C@@H]([C@@H](C)CC)C(=O)N(C)CC(=O)N(C)[C@H]3CC(C)=C(C)CN(C3=O)[C@@H](Cc3ccc(C(F)(F)F)cc3)C(=O)N(C)CC(=O)N[C@@H](CCc3cc(F)c(C(F)(F)F)c(F)c3)C(=O)N2C1 [PP1048] | 0.49 nM | C (A compound having a KD ratio of 0.1 or more and less than 3 is denoted as C) | C (A compound having a KD ratio of 0.1 or more and less than 3 is denoted as C) | 134 nM
CCO[C@@H]1C[C@H]2C(=O)NC3(CCC3)C(=O)N(C)[C@@H](C3CCCC3)C(=O)N(C)[C@H](C(=O)N(C)C)CC(=O)N(CC)[C@@H](CC(C)C)C(=O)N[C@@H]([C@@H](C)CC)C(=O)N(C)CC(=O)N(C)[C@H]3CC(C)=C(C)CN(C3=O)[C@@H](Cc3ccc(C(F)(F)F)cc3)C(=O)N(C)CC(=O)N[C@@H](CCc3cc(F)c(C(F)(F)F)c(F)c3)C(=O)N2C1 [PP1051] | 1.8 nM | C (A compound having a KD ratio of 0.1 or more and less than 3 is denoted as C) | C (A compound having a KD ratio of 0.1 or more and less than 3 is denoted as C) | 286 nM
CCO[C@@H]1C[C@H]2C(=O)NC3(CCC3)C(=O)N(C)[C@@H](C3CCCC3)C(=O)N(C)[C@H](C(=O)N(C)C)CC(=O)N(C)[C@@H](CC)C(=O)N[C@@H]([C@@H](C)CC)C(=O)N3CCC[C@H]3C(=O)N(C)[C@H]3C/C=C\CCN(C3=O)[C@@H](Cc3ccc(C(F)(F)F)cc3)C(=O)N(C)CC(=O)N[C@@H](CCc3cc(F)c(C(F)(F)F)c(F)c3)C(=O)N2C1 [PP1056] | 0.21 nM | A (a compound having 10 or more and less than 20 is denoted as A) | A (a compound having 10 or more and less than 20 is denoted as A) | 75 nM
CCO[C@@H]1C[C@H]2C(=O)NC3(CCC3)C(=O)N(C)[C@@H](C3CCCC3)C(=O)N(C)[C@H](C(=O)N(C)C)CC(=O)N(C)[C@@H](CC)C(=O)N[C@@H]([C@@H](C)CC)C(=O)N3CCCC[C@H]3C(=O)N(C)[C@H]3C/C=C\CCN(C3=O)[C@@H](Cc3ccc(C(F)(F)F)cc3)C(=O)N(C)CC(=O)N[C@@H](CCc3cc(F)c(C(F)(F)F)c(F)c3)C(=O)N2C1 [PP1058] | 2.9 nM | A (a compound having 10 or more and less than 20 is denoted as A) | B (a compound having 3 or more and less than 10 is denoted as B) | 599 nM
CCO[C@@H]1C[C@H]2C(=O)NC3(CCC3)C(=O)N(C)[C@@H](C3CCCC3)C(=O)N(C)[C@H](C(=O)N(C)C)CC(=O)N(C)[C@@H](CC)C(=O)N[C@@H]([C@@H](C)CC)C(=O)N3CC[C@@H]3C(=O)N(C)[C@H]3C/C=C\CCN(C3=O)[C@@H](Cc3ccc(C(F)(F)F)cc3)C(=O)N(C)CC(=O)N[C@@H](CCc3cc(F)c(C(F)(F)F)c(F)c3)C(=O)N2C1 [PP1064] | 17 nM | A (a compound having 10 or more and less than 20 is denoted as A) | A (a compound having 10 or more and less than 20 is denoted as A) | 1390 nM
CCO[C@@H]1CCN2C(=O)[C@H](CCc3cc(F)c(C(F)(F)F)c(F)c3)NC(=O)CN(C)C(=O)[C@H](Cc3ccc(C(F)(F)F)cc3)N3CCCCC[C@@H](C3=O)N(C)C(=O)CN(C)C(=O)[C@H]([C@@H](C)CC)NC(=O)[C@H](CC(C)C)N(C)C(=O)C[C@@H](C(=O)N3CCOCC3)N(C)C(=O)[C@H](C3CCCC3)N(C)C(=O)C3(CCC3)NC(=O)[C@H]12 [PP1082] | 3.5 nM | A (a compound having 10 or more and less than 20 is denoted as A) | B (a compound having 3 or more and less than 10 is denoted as B) | 300 nM
CCO[C@@H]1C[C@H]2C(=O)NC3(CCC3)C(=O)N(C)[C@@H](C3CCCC3)C(=O)N(C)[C@H](C(=O)N3C4CCC3COC4)CC(=O)N(C)[C@@H](CC)C(=O)N[C@@H]([C@@H](C)CC)C(=O)N(C)CC(=O)N(C)[C@H]3C/C=C\CCN(C3=O)[C@@H](Cc3ccc(C(F)(F)F)cc3)C(=O)N(C)CC(=O)N[C@@H](CCc3cc(F)c(C(F)(F)F)c(F)c3)C(=O)N2C1 [PP1093] | 0.58 nM | AA (a compound having 20 or more is denoted as AA) | A (a compound having 10 or more and less than 20 is denoted as A) | 78.7 nM
